The target of test [1] is T1, porcine pancreatic lipase (Sus scrofa, UniProt P00591).
T1 construct: purchased Sigma-Aldrich (Missouri, MO, USA)
T1 sequence (P00591 1-450): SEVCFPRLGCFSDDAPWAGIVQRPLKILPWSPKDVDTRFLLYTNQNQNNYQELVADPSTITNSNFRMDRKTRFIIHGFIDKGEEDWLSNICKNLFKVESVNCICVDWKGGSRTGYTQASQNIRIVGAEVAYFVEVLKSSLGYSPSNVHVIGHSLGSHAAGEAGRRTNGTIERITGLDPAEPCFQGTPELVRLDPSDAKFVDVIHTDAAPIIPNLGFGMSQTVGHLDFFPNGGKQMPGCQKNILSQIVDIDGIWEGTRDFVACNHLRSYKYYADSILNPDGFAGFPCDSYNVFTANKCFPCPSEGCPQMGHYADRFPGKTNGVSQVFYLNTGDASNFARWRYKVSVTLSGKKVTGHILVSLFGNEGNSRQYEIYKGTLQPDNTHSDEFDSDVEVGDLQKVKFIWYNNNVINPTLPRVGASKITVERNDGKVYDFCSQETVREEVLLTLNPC
Description: Inhibition assay of pancreatic lipase enzyme (PNPB). It counts as biochemical. How it is done: A stock solution of 1 mg/mL (1000 μg/mL) was prepared for each product using 10% DMSO. This stock solution created […] different concentrations at 20, 50, and 70 μg/mL. A fresh stock solution of pancreatic lipase enzyme was prepared immediately before use. […] In the experiment, 0.1 mL of the 1 mg/mL porcine pancreatic lipase solution was added to test tubes containing 0.2 mL of each of the various concentrations of the products. The mixtures were then brought to a final volume of 1 mL by adding a Tris-HCl solution (pH 7.4) and were incubated at 25 °C for 15 min. After the incubation period, 0.1 mL of the PNPB solution was added to each test tube, and the mixtures were incubated again for 30 min at 37 °C. The activity of pancreatic lipase was measured by assessing the hydrolysis of p-nitrophenyl butyrate to p-nitrophenol at a wavelength of 410 nm using a UV-visible spectrophotometer.

The subject of the next test is HeLa cells. Kind of test: Cytotoxicity (MTS) against HeLa cells. It counts as cell-based. The following applies: for IC50: Homo sapiens, HeLa, concentration range 100–20,000 nM, read-out: IC50 of inhibition activity against Hela cells. Here is the method:
RPMI-1640 medium was used to culture cervical adenocarcinoma (HeLa) cancer cells, supplemented with 10% fetal bovine serum, 1% penicillin/streptomycin, and 1% L-glutamine. The HeLa cells were grown in a humidified environment at 37 °C with a 5% CO2 atmosphere. A 96-well plate was employed for seeding the cells at a density of 2.6 × 10^4 cells per well. Following a 24-h incubation, the cells were treated with various concentrations of the tested (AO) fractions. Cell viability was assessed using the Cell Titer 96® Aqueous One Solution Cell Proliferation (MTS) assay, following the manufacturer’s instructions (Promega Corporation, Wisconsin, WI, USA). Briefly, at the end of the treatment, 20 µL of MTS solution was added to each well containing 100 µL of media, and the cells were incubated at 37 °C for 2 h. The absorbance was measured using a UV-visible spectrophotometer at a wavelength of 490 nm.

Turning to `OC1(c2ccccc2)c2ccccc2Sc2ccc(C(F)(F)F)cc21` (stereo not drawn) [Compound 1, 9-phenyl-2-(trifluoromethyl)-9H-thioxanthen-9-ol], the figures for the half-maximal inhibitory concentration (IC50) (in test [1]; with HeLa cells) were 176 µM and 0.0878 µM, respectively. Also, the “% toxicity against HeLa cells” value in the test on HeLa cells (200 nM) came to 93.18%.

Take `OC1(Cc2ccccc2)c2ccccc2Sc2ccc(C(F)(F)F)cc21` (stereo not drawn) [Compound 2, 9-benzyl-2-(trifluoromethyl)-9H-thioxanthen-9-ol]: the concentration for half-maximal inhibition (IC50) (in general, the concentration that gives 50% inhibition) in test [1] came to 111 ± 7.5 µM; with HeLa cells it was 0.169 µM.

“S-(9-benzyl-2-(trifluoromethyl)-9H-thioxanthen-9-yl)-L-cysteine [Compound 3]” returned an IC50 in test [1] of 277 µM.

(Values after article PMC12030165, “Bioactivity of Synthesized Trifluoromethyl Thioxanthone Analogues” (Pharmaceuticals, 2025).)
